According to patent US12064437B2, “Methods for treating systemic lupus erythematosus and the use of biomarkers as a predictor of clinical sensitivity to therapies” (CELGENE CORPORATION, priority 2020, dated 2024):

Tested on: subjects with active autoantibody-positive SLE
Test: Phase 2b study in SLE: SLE Responder Index 4 (SRI-4) response at week 24
Format: in vivo, human
Conditions: for Percentage of Subjects Who Achieve SRI(4) at Week 24, n/m (%) / SRI(4) at Week 24, Stratified Difference (%) (95% CI), Iberdomide - Placebo: ITT; for SRI-4 treatment effect versus placebo: week 24
Description: The pharmacokinetics, pharmacodynamics (PD), efficacy, and safety of oral iberdomide ((S)-3-[4-({4-[(morpholin-4-yl)methyl]phenyl}methoxy)-1-oxo-1,3-dihydro-2H-isoindol-2-yl]piperidine-2,6-dione-hydrogen chloride (1/1)) were evaluated in a phase 2b study in subjects with active autoantibody-positive SLE.
Adult SLE patients (N=288) with a ≥6-month history of SLE and SLE Disease Activity Index (SLEDAI 2K) ≥6 were randomized to placebo (n=83) or iberdomide 0.15 mg QD (n=42), 0.3 mg QD (n=82), or 0.45 mg QD (n=81). Clinical response was determined by the SLE Responder Index 4 (SRI-4) at week 24 for all patients and within pre-specified biomarker-enriched subsets based on expression of Ikaros, Aiolos, the Type 1 IFN signature (IFI27, IFI44, IFI44L, RSAD2), and other gene modules measured from fingerstick blood collected at baseline (Modular Immune Profile Test, DxTerity Diagnostics, Inc.). The primary objective of the study was to evaluate the clinical efficacy of 3 doses of iberdomide (0.45 mg once per day [QD], 0.30 mg QD, or 0.15 mg QD) compared to placebo, for the treatment of active SLE using the SLE Responder Index at Week 24.

[1] = B cell: High at baseline, 0.15 mg QD
[2] = B cell: High at baseline, 0.30 mg QD
[3] = B cell: High at baseline, 0.45 mg QD
[4] = IKZF1: High at baseline, 0.15 mg QD
[5] = IKZF1: High at baseline, 0.30 mg QD
[6] = IKZF1: High at baseline, 0.45 mg QD
[7] = IKZF1 Status of SNP rs4917014: 1 or 2 Copies, 0.15 mg QD
[8] = IKZF1 Status of SNP rs4917014: 1 or 2 Copies, 0.30 mg QD
[9] = IKZF1 Status of SNP rs4917014: 1 or 2 Copies, 0.45 mg QD
[10] = IKZF3 (Aiolos): High at baseline, 0.45 mg QD
[11] = Ikaros IFN: High at baseline, 0.15 mg QD
[12] = Ikaros IFN: High at baseline, 0.30 mg QD
[13] = Ikaros IFN: High at baseline, 0.45 mg QD
[14] = T cell Exhaustion: Low at baseline, 0.15 mg QD
[15] = T cell Exhaustion: Low at baseline, 0.30 mg QD

For `O=C1CC[C@H](N2Cc3c(OCc4ccc(CN5CCOCC5)cc4)cccc3C2=O)C(=O)N1` [iberdomide, (S)-3-[4-({4-[(morpholin-4-yl)methyl]phenyl}methoxy)-1-oxo-1,3-dihydro-2H-isoindol-2-yl]piperidine-2,6-dione-hydrogen chloride (1/1)], the “SRI(4) stratified difference from placebo” value (0 copies of IKZF1 rs4917014 protective minor allele (G), 0.45 mg QD) was 6.1%, the “estimated SRI-4 response rate” value (Aiolos (IKZF3) gene expression cutoff −0.49, 0.45 mg dose, prevalence vs. cutoff analysis) was 60-65% and the “Percentage of Subjects Who Achieve SRI(4) at Week 24, n/m (%)” value (shortened to “Percentage … (%)”) [1] was 8/24 (33.3) %. For the same molecule, the “SRI(4) at Week 24, Stratified Difference (%) (95% CI), Iberdomide - Placebo” value [1] was −0.7 (−22.56, 22.94) %, the “Percentage … (%)” value [2] was 19/49 (38.8) % and the “SRI(4) at Week 24, Stratified Difference (%) (95% CI), Iberdomide - Placebo” value [2] was 4.5 (−15.06, 23.69) %. For the same molecule, the “Percentage … (%)” value [3] was 30/54 (55.6) %, the “SRI(4) at Week 24, Stratified Difference (%) (95% CI), Iberdomide - Placebo” value [3] was 20.4 (0.74, 38.01) % and the “SRI-4 treatment effect versus placebo” value (IFN High Aiolos High double-positive population, high dose 0.45 mg) was 29.8%. For the same molecule, the “SRI-4 treatment effect versus placebo” value (IFN High Aiolos High double-positive population, low dose 0.15 mg) was 29.8%, the “SRI-4 treatment effect versus placebo” value (IFN High Aiolos Low population, low dose 0.15 mg) was 26.8% and the “SRI-4 treatment effect versus placebo” value (IFN Low Aiolos High subset, high dose 0.45 mg) was 35.0%. The “Percentage … (%)” value [4] was 12/28 (42.9) %, the “SRI(4) at Week 24, Stratified Difference (%) (95% CI), Iberdomide - Placebo” value [4] was 7.0 (−14.36, 28.68) % and the “Percentage … (%)” value [5] was 21/53 (39.6) %. For the same molecule, the “SRI(4) at Week 24, Stratified Difference (%) (95% CI), Iberdomide - Placebo” value [5] was 2.4 (−15.87, 20.58) %, the “Percentage … (%)” value [6] was 35/64 (54.7) % and the “SRI(4) at Week 24, Stratified Difference (%) (95% CI), Iberdomide - Placebo” value [6] was 16.1 (−1.76, 32.65) %. The “Percentage … (%)” value [7] was 11/21 (52.4) %, the “SRI(4) at Week 24, Stratified Difference (%) (95% CI), Iberdomide - Placebo” value [7] was 23.0 (−2.36, 46.07) % and the “Percentage … (%)” value [8] was 18/46 (39.1) %. For the same molecule, the “SRI(4) at Week 24, Stratified Difference (%) (95% CI), Iberdomide - Placebo” value [8] was 7.9 (−12.18, 26.84) %, the “Percentage … (%)” value [9] was 20/36 (55.6) % and the “SRI(4) at Week 24, Stratified Difference (%) (95% CI), Iberdomide - Placebo” value [9] was 21.3%. For the same molecule, the “Percentage … (%)” value (IKZF3 (Aiolos): High at baseline, 0.15 mg QD) was 5/14 (35.7) %, the “SRI(4) at Week 24, Stratified Difference (%) (95% CI), Iberdomide - Placebo” value (IKZF3 (Aiolos): High at baseline, 0.15 mg QD, listed as Iberdomide) was 2.2 (−24.82, 31.94) % and the “Percentage … (%)” value (IKZF3 (Aiolos): High at baseline, 0.30 mg QD) was 9/32 (28.1) %. The “SRI(4) at Week 24, Stratified Difference (%) (95% CI), Iberdomide - Placebo” value (IKZF3 (Aiolos): High at baseline, 0.30 mg QD, listed as Iberdomide) was −7.1 (−31.13, 16.94) %, the “Percentage … (%)” value [10] was 23/36 (63.9) % and the “SRI(4) at Week 24, Stratified Difference (%) (95% CI), Iberdomide - Placebo” value [10] was 32.9%. For the same molecule, the “SRI(4) at Week 24, Stratified Difference (%) (95% CI), Iberdomide - Placebo” value (IKZF3 (Aiolos): High at baseline, 0.45 mg QD, listed as Iberdomide) was 32.9 (7.74, 52.90) %, the “Percentage … (%)” value [11] was 16/30 (53.3) % and the “SRI(4) at Week 24, Stratified Difference (%) (95% CI), Iberdomide - Placebo” value [11] was 18.6 (−3.69, 39.05) %. For the same molecule, the “Percentage … (%)” value [12] was 21/49 (42.9) %, the “SRI(4) at Week 24, Stratified Difference (%) (95% CI), Iberdomide - Placebo” value [12] was 8.9 (−10.47, 27.36) % and the “Percentage … (%)” value [13] was 36/62 (58.1) %. For the same molecule, the “SRI(4) at Week 24, Stratified Difference (%) (95% CI), Iberdomide - Placebo” value [13] was 24.3%, the “SRI(4) at Week 24, Stratified Difference (%) (95% CI), Iberdomide - Placebo” value (Ikaros IFN: High at baseline, 0.45 mg QD, listed as Iberdomide) was 24.3 (5.45, 40.76) % and the “SRI(4) at Week 24, Stratified Difference (%) (95% CI), Iberdomide - Placebo” value (Overall Subjects, 0.15 mg QD) was 11.4%. The “Percentage … (%)” value (Overall Subjects, 0.15 mg QD, nonresponder imputation) was 20/42 (47.6) %, the “SRI(4) at Week 24, Stratified Difference (%) (95% CI), Iberdomide - Placebo” value (Overall Subjects, 0.15 mg QD, listed as Iberdomide) was 11.4 (−6.57, 29.00) % and the “SRI(4) at Week 24, Stratified Difference (%) (95% CI), Iberdomide - Placebo” value (Overall Subjects, 0.30 mg QD) was 5.0%. For the same molecule, the “Percentage … (%)” value (Overall Subjects, 0.30 mg QD, nonresponder imputation) was 33/82 (40.2) %, the “SRI(4) at Week 24, Stratified Difference (%) (95% CI), Iberdomide - Placebo” value (Overall Subjects, 0.30 mg QD, listed as Iberdomide) was 5.0 (−9.77, 19.48) % and the “SRI(4) at Week 24, Stratified Difference (%) (95% CI), Iberdomide - Placebo” value (Overall Subjects, 0.45 mg QD) was 19.4%. For the same molecule, the “Percentage … (%)” value (Overall Subjects, 0.45 mg QD, nonresponder imputation) was 54.3%, the “Percentage … (%)” value (Overall Subjects, 0.45 mg QD, nonresponder imputation, listed as Iberdomide) was 44/81 (54.3) % and the “SRI(4) at Week 24, Stratified Difference (%) (95% CI), Iberdomide - Placebo” value (Overall Subjects, 0.45 mg QD, listed as Iberdomide) was 19.4 (4.12, 33.42) %. For the same molecule, the “Percentage … (%)” value [14] was 13/29 (44.8) %, the “SRI(4) at Week 24, Stratified Difference (%) (95% CI), Iberdomide - Placebo” value [14] was 5.4 (−15.51, 26.63) % and the “Percentage … (%)” value [15] was 28/65 (43.1) %. For the same molecule, the “SRI(4) at Week 24, Stratified Difference (%) (95% CI), Iberdomide - Placebo” value [15] was 4.7 (−12.69, 21.53) % and the “Percentage … (%)” value (T cell Exhaustion: Low at baseline, 0.45 mg QD) was 39/66 (59.1) %.
